Here are results for 10 molecules from PubChem BioAssay (NCI).

Among the test systems are NCI-H522 lung; ACHN renal; NCI-H23 lung; HS 578T breast; LOX IMVI melanoma; EKVX NSCLC; OVCAR-4 ovarian; HT29 colon; K-562 leukemia; UACC-257 melanoma; HCT-15 colon; SNB-19 CNS; MOLT-4 leukemia; HOP-92 NSCLC; SR leukemia.
Assay in all cases: NCI anticancer screen, dose series, 48 h

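1) Cells in 96-well plates. 2) Compound, 48 h, 5 concentrations. 3) Linear interpolation between surrounding doses. 4) Unreached endpoint = highest concentration. TGI: total growth inhibition.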 Bounds are passed on as bounds.

With `COc1cc(/C=C/C=C2\CCC/C(=C\C=C\c3ccc(O)c(OC)c3)C2=O)ccc1O`, the TGI in the assay on NCI-H522 lung is 3.39 µM; in the assay with ACHN renal, 39 µM; in the assay with NCI-H23 lung it was greater than 100 µM; in the assay with HS 578T breast, greater than 100 µM; in the assay on LOX IMVI melanoma, 33.5 µM; in the assay with EKVX NSCLC, 64.7 µM. Also, the TGI was greater than 100 µM in the assay on OVCAR-4 ovarian; 31.1 µM in the assay on HT29 colon; greater than 100 µM in the assay with K-562 leukemia; 31.4 µM with UACC-257 melanoma; 43.7 µM in the assay on HCT-15 colon; greater than 100 µM in the assay with SNB-19 CNS. The TGI with MOLT-4 leukemia came to 10.4 µM; in the assay on HOP-92 NSCLC it was 44.9 µM; in the assay with SR leukemia it was 19.7 µM.

Regarding `O=c1oc2ccccc2cc1-c1csc(Nc2cc(Cl)cc(Cl)c2)n1`, the TGI is 96.6 µM with NCI-H522 lung; 4.38 µM with ACHN renal; greater than 56.7 µM with NCI-H23 lung; 98.1 µM in the assay with HS 578T breast; 7.62 µM with LOX IMVI melanoma; greater than 100 µM in the assay on EKVX NSCLC. The TGI is 14.2 µM in the assay with HT29 colon; greater than 100 µM in the assay with K-562 leukemia; greater than 100 µM in the assay on UACC-257 melanoma; greater than 100 µM with HCT-15 colon; greater than 52.8 µM in the assay on SNB-19 CNS; greater than 100 µM in the assay on MOLT-4 leukemia. Besides, the figures for the TGI in the assay with HOP-92 NSCLC and in the assay on SR leukemia were greater than 58.3 µM and greater than 100 µM, respectively.

With `CN(CCCCN1CCCC1)CCCCN(C)C(=O)Cc1ccc(Cl)c(Cl)c1`, the TGI in the assay with NCI-H522 lung was determined as 27.7 µM; with ACHN renal, 57.1 µM; with NCI-H23 lung, 37.3 µM; in the assay on HS 578T breast, 54.5 µM; in the assay on LOX IMVI melanoma it was 25.2 µM; in the assay on EKVX NSCLC it was 37 µM. The TGI in the assay with OVCAR-4 ovarian was 33.9 µM; with HT29 colon, 15.4 µM; in the assay with K-562 leukemia, 10.5 µM; with UACC-257 melanoma it was 6.22 µM; with HCT-15 colon it was 50 µM; in the assay on SNB-19 CNS it was 36.8 µM. In addition, the TGI with MOLT-4 leukemia was found to be 22.1 µM; with HOP-92 NSCLC it was 17.5 µM; in the assay on SR leukemia it was 14.3 µM.

In the case of `CC(=O)/C(N=Nc1ccc(-n2c(C)nc3ccc(Br)cc3c2=O)cc1)=C(/C)O`, the TGI is greater than 100 µM with ACHN renal; greater than 100 µM in the assay on NCI-H23 lung; 91.2 µM with HS 578T breast; greater than 100 µM in the assay with LOX IMVI melanoma; greater than 100 µM in the assay with EKVX NSCLC; greater than 100 µM in the assay with HT29 colon. The TGI in the assay on K-562 leukemia, with UACC-257 melanoma, with HCT-15 colon, with SNB-19 CNS, with MOLT-4 leukemia and with HOP-92 NSCLC was greater than 100 µM each time. In the assay with SR leukemia, the TGI is greater than 100 µM.

As for `CC(=O)c1cccc(Nc2c3ccccc3nc3occc23)c1`, the TGI in the assay on NCI-H522 lung was 4.62 µM; with ACHN renal, greater than 100 µM; with NCI-H23 lung, 18.2 µM; with HS 578T breast, 35.3 µM; in the assay with LOX IMVI melanoma it was greater than 100 µM; with EKVX NSCLC it was greater than 100 µM. In addition, the TGI is 6.67 µM in the assay on OVCAR-4 ovarian; 8.46 µM in the assay with HT29 colon; greater than 100 µM in the assay on K-562 leukemia; 25.5 µM with UACC-257 melanoma; greater than 100 µM with HCT-15 colon; greater than 100 µM in the assay with SNB-19 CNS. The TGI was 51.6 µM in the assay with MOLT-4 leukemia, 62.2 µM in the assay on HOP-92 NSCLC and greater than 100 µM in the assay with SR leukemia.

With `c1cc2[nH]snc2c2cncc12`, the TGI in the assay with NCI-H522 lung, in the assay on ACHN renal, in the assay on NCI-H23 lung, in the assay with HS 578T breast, with LOX IMVI melanoma and in the assay with EKVX NSCLC was greater than 100 µM in each case. Further, the TGI with OVCAR-4 ovarian, with HT29 colon, in the assay on K-562 leukemia, in the assay on UACC-257 melanoma, in the assay with HCT-15 colon and in the assay on MOLT-4 leukemia was greater than 100 µM throughout. Besides, the TGI in the assay on HOP-92 NSCLC was 85.7 µM; in the assay on SR leukemia it was greater than 100 µM.

For the molecule `Cc1ccc(S(=O)(=O)NC(=O)NC(C(=O)O)C(C)O)cc1` (stereo unspecified), the TGI in the assay on NCI-H522 lung, in the assay with ACHN renal, with NCI-H23 lung, in the assay with HS 578T breast, with LOX IMVI melanoma and in the assay with OVCAR-4 ovarian was greater than 100 µM each time. Also, the TGI in the assay with HT29 colon, in the assay on K-562 leukemia, in the assay with UACC-257 melanoma, in the assay with HCT-15 colon, in the assay with SNB-19 CNS and in the assay on MOLT-4 leukemia was greater than 100 µM each time. Further, the TGI in the assay with HOP-92 NSCLC and in the assay with SR leukemia was greater than 100 µM in each case.

For the molecule `FC(F)(F)c1ccc2c(c1)nc(Cc1ccc(Cl)c(Cl)c1)n2CC1CCCN2CCCCC12` (stereo unspecified), the TGI in the assay with NCI-H522 lung is 30.8 µM; with ACHN renal, greater than 100 µM; in the assay with HS 578T breast, 34.4 µM; in the assay on LOX IMVI melanoma it was 31.6 µM; in the assay on EKVX NSCLC, 80.3 µM; with OVCAR-4 ovarian it was greater than 100 µM. For the same molecule, the TGI in the assay on HT29 colon was 28.2 µM; with K-562 leukemia, greater than 100 µM; with UACC-257 melanoma, 41 µM; in the assay with HCT-15 colon, greater than 100 µM; in the assay with SNB-19 CNS, 53.1 µM; with MOLT-4 leukemia it was greater than 100 µM. Besides, the TGI was greater than 100 µM in the assay with HOP-92 NSCLC and 74.6 µM in the assay on SR leukemia.

Consider `N#Cc1c(N)c2c(c(-c3ccccc3)c1-c1ccccc1)C(=O)N(Nc1ccccc1)C2=O`, for which the TGI with NCI-H522 lung was greater than 100 µM; in the assay with ACHN renal it was greater than 100 µM; in the assay on HS 578T breast, greater than 100 µM; in the assay with LOX IMVI melanoma, 86.8 µM; in the assay on EKVX NSCLC, greater than 100 µM; in the assay with OVCAR-4 ovarian, greater than 100 µM. Also, the TGI with K-562 leukemia, in the assay on UACC-257 melanoma, with HCT-15 colon, with SNB-19 CNS, with MOLT-4 leukemia and with HOP-92 NSCLC was greater than 100 µM throughout. This molecule also had a TGI in the assay on SR leukemia greater than 100 µM.

For the molecule `NC(N)=NCc1ccc2c(c1)OCO2`, the TGI in the assay with NCI-H522 lung, in the assay with ACHN renal, in the assay on NCI-H23 lung, in the assay with HS 578T breast, in the assay with LOX IMVI melanoma and with EKVX NSCLC was greater than 100 µM in each case. The TGI in the assay on OVCAR-4 ovarian, in the assay on HT29 colon, with K-562 leukemia, in the assay with HCT-15 colon, in the assay on SNB-19 CNS and in the assay with MOLT-4 leukemia was greater than 100 µM throughout. Besides, the TGI in the assay on HOP-92 NSCLC and in the assay on SR leukemia was greater than 100 µM each time.
